Test results taken from patent US11103457B2, “Pharmaceutical compositions comprising safinamide” (Zambon S.P.A., priority 2017, dated 2021).

Assay: Sensory evaluation of the active ingredient safinamide (taste and irritation in the mouth)
Assay type: in vivo
Settings: five minutes after rinsing with drinking water; 2 subjects
Experimental: In order to verify the unpleasant taste and irritation sensation of the active pharmaceutical ingredient, safinamide methanesulphonate, a test was performed in vivo by using an amount of safinamide methanesulfonate equal to 100 mg of safinamide base. Sensory evaluation was carried out by recruiting 2 subjects, who were asked to put said amount in the mouth by avoiding swallowing the mass. At the end of the test, participants were asked to rinse the mouth with plenty of drinking water; five minutes later their tongue and palate resulted to be still sore.

In the case of `C[C@H](NCc1ccc(OCc2cccc(F)c2)cc1)C(N)=O` [safinamide methanesulfonate, (2S)-2-[[4-[(3-fluorophenyl)methoxy]phenyl]methylamino]propanamide], the “tongue and palate after rinsing the mouth” value is reported as “still sore”.
